Data on two compounds can be found in patent US6586434B2, “Method for the preparation of tetrahydrobenzothiepines” (G.D. Searle, LLC, priority 2000, dated 2003).

This data set is described as follows: Water uptake experiments (Dynamic Vapor Sorption, water sorption/desorption isotherms). It is filed as physicochemical. The settings on record: for Desorptoin % Weight Change: reverse stepwise RH decrease; for Sorption % Weight Change: stepwise RH increase. On the procedure: Water sorption experiments are performed on a Dynamic Vapor Sorption (DVS) apparatus (DVS-1000 manufactured by Surface Measurements Systems, Inc.). Experiments are performed at 25° C. by initially drying the material of interest (about 10 mg sample) from 30% relative humidity (RH) (ambient room condition) to about 9% RH in a stepwise fashion (10% RH step) by purging with dry nitrogen until no further weight change was observed. The samples are then exposed to a stepwise (10% RH steps) increase in RH from about 0 to about 90% RH. Each successive step is initiated when the change in weight over time at the relative humidity was less than 0.0003% ((dm/dt)/m0×100, where m is mass in mg, m0 is initial mass, and t is time in minutes). The sample is then taken through the reverse of the stepwise % RH increase. The data are collected on a computer and analyzed using SMS' proprietary MS-Excel macro interface software.

`CCCCC1(CCCC)CS(=O)(=O)c2ccc(N(C)C)cc2[C@@H](c2ccc(OCc3ccc(C[N+]45CCN(CC4)CC5)cc3)cc2)[C@H]1O.[Cl-]` [Form II, (4R,5R)-1-((4-(4-(3,3-dibutyl-7-(dimethylamino)-2,3,4,5-tetrahydro-4-hydroxy-1,1-dioxido-1-benzithiepin-5-yl)phenoxy)methyl)phenyl)methyl-4-aza-1-azoniabicyclo[2.2.2]octane chloride]: the “Desorptoin % Weight Change” value was −0.02695% (1.3 % RH at 25° C.); 0.04235% (9.35 % RH at 25° C.); 0.09715% (20.25 % RH at 25° C.); 0.1444% (29.75 % RH at 25° C.); 0.1866% (39.55 % RH at 25° C.); 0.2636% (49.7 % RH at 25° C.). For the same compound, the “Desorptoin % Weight Change” value came out at 0.331% (59.5 % RH at 25° C.), 0.3983% (69.1 % RH at 25° C.), 0.4849% (78.65 % RH at 25° C.) and 0.6446% (88.5 % RH at 25° C.). Also, the “Sorption % Weight Change” value by setting is: (1.3 % RH at 25° C.) −0.02695%; (9.35 % RH at 25° C.) 0.04715%; (20.25 % RH at 25° C.) 0.1058%; (29.75 % RH at 25° C.) 0.1376%; (39.55 % RH at 25° C.) 0.1809%; (49.7 % RH at 25° C.) 0.2386%. For the same compound, the “Sorption % Weight Change” value (59.5 % RH at 25° C.) is 0.304%, the “Sorption % Weight Change” value (69.1 % RH at 25° C.) came to 0.3945%, the “Sorption % Weight Change” value (78.65 % RH at 25° C.) is listed as 0.4695% and the “Sorption % Weight Change” value (88.5 % RH at 25° C.) is 0.6446%. For the same compound, under “dry sample equilibrated under 80% relative humidity (RH) air at 25° C.”, the “weight gain of dry sample (of its own weight) when equilibrated under humid air” value is “less than 1%”. Moreover, where the note is “dry sample, 80% RH air at 25° C.”, the hygroscopicity result is given as “essentially nonhygroscopic”.
Take `CCCCC1(CCCC)CS(=O)(=O)c2ccc(N(C)C)cc2[C@@H](c2ccc(OCc3ccc(C[N+]45CCN(CC4)CC5)cc3)cc2)[C@H]1O.[Cl-]` [Form I, (4R,5R)-1-((4-(4-(3,3-dibutyl-7-(dimethylamino)-2,3,4,5-tetrahydro-4-hydroxy-1,1-dioxido-1-benzithiepin-5-yl)phenoxy)methyl)phenyl)methyl-4-aza-1-azoniabicyclo[2.2.2]octane chloride]: the “Desorptoin % Weight Change” value (0.45 % RH at 25° C.) is 0.057%; the “Desorptoin % Weight Change” value (9.2 % RH at 25° C.) is listed as 0.997%; the “Desorptoin % Weight Change” value (20.05 % RH at 25° C.) was found to be 2.1025%; the “Desorptoin % Weight Change” value (29.75 % RH at 25° C.) was 3.599%; the “Desorptoin % Weight Change” value (39.4 % RH at 25° C.) came to 4.743%; the “Desorptoin % Weight Change” value (49.55 % RH at 25° C.) is on record as 5.321%. Further, the “Desorptoin % Weight Change” value by setting is: (59.4 % RH at 25° C.) 5.726%; (69.05 % RH at 25° C.) 6.054%; (78.8 % RH at 25° C.) 6.357%; (88.5 % RH at 25° C.) 6.734%. In addition, the “Sorption % Weight Change” value reads like this: (0.45 % RH at 25° C.) 0.057%; (9.2 % RH at 25° C.) 0.9575%; (20.05 % RH at 25° C.) 2.016%; (29.75 % RH at 25° C.) 3.4105%; (39.4 % RH at 25° C.) 4.282%; (49.55 % RH at 25° C.) 4.928%. Further, the “Sorption % Weight Change” value stood at 5.356% (59.4 % RH at 25° C.), 5.706% (69.05 % RH at 25° C.), 6.109% (78.8 % RH at 25° C.) and 6.734% (88.5 % RH at 25° C.).
